According to patent US10660333B2, “Substituted 2-heterocyclylimidazolylcarboxamides as pesticides” (BAYER CROPSCIENCE AKTIENGESELLSCHAFT, priority 2016, dated 2020):
Like-named read-outs stand apart in the source and are kept apart here.

Legend:
[1] = log P by HPLC on reversed-phase (C18) columns, OECD Guideline 117; format: physicochemical; settings: for chromatographic logP: reversed-phase (C18) HPLC column
Myzus persicae [2] = test: Myzus persicae - spray test; format: in vivo; settings: 500 g/ha, Chinese cabbage leaf discs, after 5 days; for pest or weed control at 500 g/ha: Myzus persicae, foliar, 120 h, read-out: efficacy (aphids killed)
Procedure: Myzus persicae—Spray Test
(§1) To produce a suitable active ingredient formulation, 1 part by weight of active ingredient is dissolved with the specified parts by weight of solvent and made up to the desired concentration with water containing an emulsifier concentration of 1000 ppm. To produce further test concentrations, the formulation is diluted with emulsifier-containing water.
(§2) Discs of Chinese cabbage leaves (Brassica pekinensis) infested by all stages of the green peach aphid (Myzus persicae) are sprayed with an active ingredient formulation of the desired concentration.
(§3) After 5 days, the efficacy in % is determined. 100% means that all the aphids have been killed; 0% means that no aphids have been killed.

Myzus persicae [3] = test: Myzus persicae - oral test; format: in vivo; settings: 4 ppm, oral, after 5 days; for pest or weed control at 4 ppm: Myzus persicae, 120 h, read-out: efficacy (aphids killed)
Procedure: (§4) To produce a suitable active ingredient formulation, 1 part by weight of active ingredient is dissolved with the specified parts by weight of solvent and made up to the desired concentration with water.
(§5) 50 μl of the active ingredient formulation are transferred into microtitre plates and made up to a final volume of 200 μl with 150 μl of IPL41 insect medium (33%+15% sugar). Subsequently, the plates are sealed with parafilm, which a mixed population of green peach aphids (Myzus persicae) within a second microtitre plate is able to puncture and imbibe the solution.
as §3

Myzus persicae [4] = test: Myzus persicae - spray test (MYZUPE), comparison with prior art; format: in vivo; settings: 5 dat; for Emax at 4 g/ha / Emax at 20 g/ha / Emax at 100 g/ha / Emax at 500 g/ha: Myzus persicae, 120 h, read-out: % efficacy
Procedure: Myzus persicae—Spray Test (MYZUPE)
as §1, §2
(§6) After the desired period of time, the efficacy in % is determined. 100% means that all the aphids have been killed; 0% means that no aphids have been killed.

Myzus persicae [5] = test: Myzus persicae - oral test (MYZUPE O), comparison with prior art; format: in vivo; settings: 5 dat; for Emax at 0.8 ppm / Emax at 4 ppm: Myzus persicae, po, 120 h, read-out: % efficacy
Procedure: Myzus persicae—Oral Test (MYZUPE O)
as §4, §5, §6

Myzus persicae [6] = test: Myzus persicae - spray test (MYZUPE S), bell pepper plants; format: in vivo; settings: 6 dat; for Emax at 0.16 ppm / Emax at 0.8 ppm: Myzus persicae, 144 h, read-out: % efficacy
Procedure: Myzus persicae—Spray Test (MYZUPE S)
as §1, with “water. If the addition of ammonium salts or/and penetrants is required, these are each added in a concentration of 1000 ppm to the formulation solution.” for “water.”
Bell pepper plants (Capsicum annuum) severely infested with the green peach aphid (Myzus persicae) are treated by spraying with the active ingredient formulation in the desired concentration.
After the desired time, the kill in % is determined. 100% means that all the animals have been killed; 0% means that no animals have been killed.

Myzus persicae [7] = test: Myzus persicae - drench test (MYZUPE D), savoy cabbage; format: in vivo; settings: 10 dat; for Emax at 0.16 ppm / Emax at 0.8 ppm: Myzus persicae, soil, 240 h, read-out: % efficacy
Procedure: Myzus persicae—Drench Test (MYZUPE D)
To produce a suitable active ingredient formulation, 1 part by weight of active ingredient is mixed with the specified amounts of solvent and emulsifier, and the concentrate is diluted with water to the desired concentration, it being necessary to include the volume of soil which is drenched in the calculation. It should be ensured that a concentration of 40 ppm of emulsifier in the soil is not exceeded. To produce further test concentrations, water is used for dilution.
Savoy cabbage (Brassica oleracea) in pots with soil and infested by all stages of the green peach aphid (Myzus persicae) is watered with an active ingredient formulation of the desired concentration.
as §6

Aphis gossypii = Aphis gossypii - spray test (APHIGO S), cotton plants; format: in vivo; settings: 144 h, 6 dat, read-out: % efficacy
Procedure: Aphis gossypii—Spray Test (APHIGO S)
as §1, with “water. If the addition of ammonium salts or/and penetrants is required, these are each added in a concentration of 1000 ppm to the formulation solution.” for “water.”
Cotton plants (Gossypium hirsutum) heavily infested by the cotton aphid (Aphis gossypii) are sprayed with an active ingredient formulation of the desired concentration.
After the desired time, the kill in % is determined. 100% means that all the aphids have been killed; 0% means that no aphids have been killed.

[8] = HPLC RP C18, acidic range pH 2.7, 0.1% formic acid/acetonitrile, read-out: logP[a]
[9] = HPLC RP C18, neutral range pH 7.8, ammonium hydrogencarbonate/acetonitrile, read-out: logP[n]

SMILES | chromatographic logP [1, 8] | chromatographic logP [1, 9] | pest or weed control at 500 g/ha (Myzus persicae [2]) | pest or weed control at 4 ppm (Myzus persicae [3]) | Emax at 20 g/ha (Myzus persicae [4]; 20 g/ha (g of ai/ha)) | Emax at 100 g/ha (Myzus persicae [4]; 100 g/ha (g of ai/ha)) | Emax at 500 g/ha (Myzus persicae [4]; 500 g/ha) | Emax at 0.8 ppm (Myzus persicae [5]; 0.8 ppm) | Emax at 4 ppm (Myzus persicae [5]; 4 ppm) | Emax at 0.16 ppm (Myzus persicae [6]; 0.16 ppm) | Emax at 0.8 ppm (Myzus persicae [6]; 0.8 ppm) | Emax at 0.16 ppm (Myzus persicae [7]; 0.16 ppm) | Emax at 0.8 ppm (Myzus persicae [7]; 0.8 ppm) | Emax at 0.16 ppm (Aphis gossypii) | Emax at 0.8 ppm (Aphis gossypii) | also measured
CC1=NOC(c2ncc(C(=O)N(C)c3cccnc3)n2C)C1 (stereo not drawn) [Example I-1-1] | 0.27 | 0.76 | 100% | 100% | 70% | 70% | 100% | 100% | 100% | 100% | 95% | 100% | 100% | 100% | 100% | Emax at 4 g/ha (Myzus persicae [4]; 4 g/ha (g of ai/ha)): 70%
CCC1=NOC(c2ncc(C(=O)N(C)c3cccnc3)n2C)C1 (stereo not drawn) [Example I-1-2] | 0.71 | 1.09 | 90% | 100% | 90% | 70% | 90% | 100% | 100% | 100% | 100% | 98% | 100% | 98% | 98% | 
CC(C)C1=NOC(c2ncc(C(=O)N(C)c3cccnc3)n2C)C1 (stereo not drawn) [Example I-1-3] | 1.08 | 1.34 | 100% | 100% | 70% | 90% | 100% | 100% | 100% | 99% | 100% | 95% | 100% | 70% | 100% | 
CN(C(=O)c1cnc(C2CC(C3CC3)=NO2)n1C)c1cccnc1 (stereo not drawn) [Example I-1-4] | 0.85 | 1.15 | 90% | 100% | 100% | 90% | 90% | 100% | 100% | 98% | 100% | 95% | 100% | 90% | 100% | Emax at 4 g/ha (Myzus persicae [4]; 4 g/ha (g of ai/ha)): 70%
CN(C(=O)c1cnc(C2CC(c3ccc(F)cc3)=NO2)n1C)c1cccnc1 (stereo not drawn) [Example I-1-22] |  |  |  |  |  |  |  |  |  |  |  |  |  |  |  | logP[a] ([1]; pH 2.7): 1.55; logP[n] ([1]; pH 7.8): 1.82; efficacy (aphids killed) (Myzus persicae [2]): 100%; efficacy (aphids killed) (Myzus persicae [3]): 100%; % efficacy (Myzus persicae [4]; 4 g/ha (g of ai/ha)): 90%; % efficacy (Myzus persicae [4]; 20 g/ha (g of ai/ha)): 100%; % efficacy (Myzus persicae [4]; 100 g/ha (g of ai/ha)): 100%; % efficacy (Myzus persicae [4]; 500 g/ha): 100%; % efficacy (Myzus persicae [5]; 0.8 ppm): 90%; % efficacy (Myzus persicae [5]; 4 ppm): 100%; % efficacy (Myzus persicae [6]; 0.16 ppm): 90%; % efficacy (Myzus persicae [6]; 0.8 ppm): 99%; % efficacy (Myzus persicae [7]; 0.16 ppm): 90%; % efficacy (Myzus persicae [7]; 0.8 ppm): 95%
CN(C(=O)c1cnc(C2CC(c3ccccn3)=NO2)n1C)c1cccnc1 (stereo not drawn) [Example I-1-26] | 1.01 | 1.27 | 90% | 100% | 90% | 90% | 90% | 100% | 100% | 100% | 100% | 95% | 98% |  | 100% | 
CN(C(=O)c1cnc(C2CC=NO2)n1C)c1cccnc1 (stereo not drawn) [Example I-1-30] | 0.1 | 0.57 | 90% | 90% | 70% | 70% | 90% | 100% | 90% | 95% | 100% | 95% | 95% |  | 80% | 
CN(C(=O)c1cnc(C2CC(C(F)(F)F)=NO2)n1C)c1cccnc1 (stereo not drawn) [Example I-1-32] | 1.45 | 1.59 | 90% | 100% |  |  | 90% | 100% | 100% | 20% | 96% | 90% | 99% | 90% | 97% | 
